According to patent publication US20220281821A1, “INDAZOLE COMPOUNDS AND THEIR PHARMACEUTICAL COMPOSITIONS” (Jinan University, priority 2019, published 2022):

Key:
TRKA = molecular target: T1, TRKA (Homo sapiens, UniProt P04629); test: Z′-LYTE kinase activity assay, TRKA; format: biochemical; details: ATP 400 uM
T1 construct: purchased life technologies PV3144
Text: (§1) Kinase activity assay: Z′-LYTE™ technology (detection by fluorescence, enzyme-conjugated format, based on the difference in sensitivity of phosphorylated and non-phosphorylated peptides to proteolytic cleavage) was applied, and using the principle of fluorescence resonance energy transfer (FRET), a Z′-LYTE™ FRET peptide substrate (Z′-LYTE™ Tyrosine 1 Peptide Substrate, Invitrogen, PV3190), and a secondary reaction were used to detect the inhibitory activity of the compounds on TRKs (TRK1, TRK2, TRK3) (life technologies, PV3144, PV3616, PV3617).
(§2) Enzymatic reaction: In a 384-well plate, 5 μL of an enzyme-substrate system (50 mM HEPES pH 7.5, 0.01% BRIJ-35, 10 mM MgCl2, 1 mM EGTA, 2 μM Tyr 01 Peptide Substrate) was added and 5 nL of compound (concentration gradient) was transferred thereto by using the echo520 ultramicro liquid pipetting system. […] After shaking and mixing, centrifuging was performed. A reaction was carried out at 30° C. in the dark for 1.5 hours.
(§3) The data were analyzed as follows:
(§4) Phosphorylation ratio=1−{(emission ratio×F100%−C100%)/[C0%−C100%+emission ratio×(F100%−F0%)]}×100;
(§5) Inhibition rate=100×(1−compound phosphorylation ratio/negative control phosphorylation ratio).
(§6) IC50 values were calculated by using GraphPad Prism 5.0 software.

TRKB = molecular target: T2, TRKB (Homo sapiens, UniProt Q16620); test: Z′-LYTE kinase activity assay, TRKB; format: biochemical; details: ATP 25 uM
T2 construct: purchased life technologies PV3616
Text: as §1, §2, §3, §4, §5, §6

TRKC = molecular target: T3, TRKC (Homo sapiens, UniProt Q16288); test: Z′-LYTE kinase activity assay, TRKC; format: biochemical; details: ATP 50 uM
T3 construct: purchased life technologies PV3617
Text: as §1, §2, §3, §6

BaF3-CD74-NTRK1 = molecular target: T4, BaF3-CD74-NTRK1 (Homo sapiens, UniProt P04629); test: Cell proliferation inhibition (CCK-8), BaF3-CD74-NTRK1 stable strain; format: cell-based, mouse; details: BaF3-CD74-NTRK1, 72 hours
T4 construct: fused on or other part: P04233 (HLA class II histocompatibility antigen gamma chain)
Outline: (§7)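 Ba/F3 cells stably electroporated with ETV6-NTRK3, CD74-NTRK1 or ETV6-NTRK2, selected with G418 and grown without IL3, then cloned by limiting dilution.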

BaF3-ETV6-NTRK2 = molecular target: T5, BaF3-ETV6-NTRK2 (Homo sapiens, UniProt Q16620); test: Cell proliferation inhibition (CCK-8), BaF3-ETV6-NTRK2 stable strain; format: cell-based, mouse; details: BaF3-ETV6-NTRK2, 72 hours
T5 construct: fused on or other part: P41212 (Transcription factor ETV6)
Outline: as §7

BaF3-ETV6-NTRK3 = molecular target: T6, BaF3-ETV6-NTRK3 (Homo sapiens, UniProt Q16288); test: Cell proliferation inhibition (CCK-8), BaF3-ETV6-NTRK3 stable strain; format: cell-based, mouse; details: BaF3-ETV6-NTRK3, 72 hours
T6 construct: fused on or other part: P41212 (Transcription factor ETV6)
Outline: as §7

T4 sequence (P04629 510-796 limits assumed): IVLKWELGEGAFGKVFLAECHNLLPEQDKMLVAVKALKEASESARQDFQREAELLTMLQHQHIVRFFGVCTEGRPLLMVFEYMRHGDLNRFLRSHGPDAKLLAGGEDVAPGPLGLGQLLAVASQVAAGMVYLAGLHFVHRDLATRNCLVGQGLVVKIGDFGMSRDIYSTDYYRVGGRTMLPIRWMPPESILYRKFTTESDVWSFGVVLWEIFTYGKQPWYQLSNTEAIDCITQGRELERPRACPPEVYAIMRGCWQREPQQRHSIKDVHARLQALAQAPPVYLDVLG
T5 sequence (Q16620 538-822 limits assumed): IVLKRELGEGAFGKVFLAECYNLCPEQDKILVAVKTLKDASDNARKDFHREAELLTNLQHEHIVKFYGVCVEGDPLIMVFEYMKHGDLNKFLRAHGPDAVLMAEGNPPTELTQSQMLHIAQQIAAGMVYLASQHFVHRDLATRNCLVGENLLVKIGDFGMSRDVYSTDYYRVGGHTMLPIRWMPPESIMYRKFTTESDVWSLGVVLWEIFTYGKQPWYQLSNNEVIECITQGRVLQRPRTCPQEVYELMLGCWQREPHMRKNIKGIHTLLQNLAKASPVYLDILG
T3 sequence (Q16288 32-839): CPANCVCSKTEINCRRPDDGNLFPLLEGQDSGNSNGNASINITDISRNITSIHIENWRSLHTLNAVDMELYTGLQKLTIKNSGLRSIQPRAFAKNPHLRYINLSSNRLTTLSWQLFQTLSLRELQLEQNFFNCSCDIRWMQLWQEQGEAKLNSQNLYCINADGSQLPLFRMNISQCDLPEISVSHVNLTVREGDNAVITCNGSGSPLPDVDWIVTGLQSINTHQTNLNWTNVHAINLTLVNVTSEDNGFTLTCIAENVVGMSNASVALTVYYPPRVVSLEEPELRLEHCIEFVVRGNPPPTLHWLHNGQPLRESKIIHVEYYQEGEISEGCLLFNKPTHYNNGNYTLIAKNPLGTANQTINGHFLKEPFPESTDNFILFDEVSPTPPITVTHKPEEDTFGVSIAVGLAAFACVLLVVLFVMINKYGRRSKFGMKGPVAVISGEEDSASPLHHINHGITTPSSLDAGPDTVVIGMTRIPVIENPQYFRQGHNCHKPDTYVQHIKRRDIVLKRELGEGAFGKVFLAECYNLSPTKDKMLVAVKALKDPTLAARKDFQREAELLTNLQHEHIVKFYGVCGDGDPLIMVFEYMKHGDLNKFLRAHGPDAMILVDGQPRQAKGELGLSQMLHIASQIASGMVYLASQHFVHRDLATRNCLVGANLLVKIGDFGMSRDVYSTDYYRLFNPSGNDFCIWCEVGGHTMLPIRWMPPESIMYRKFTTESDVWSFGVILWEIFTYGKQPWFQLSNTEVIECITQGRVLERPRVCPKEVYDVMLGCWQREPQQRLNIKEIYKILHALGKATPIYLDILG
T2 sequence (Q16620 32-822): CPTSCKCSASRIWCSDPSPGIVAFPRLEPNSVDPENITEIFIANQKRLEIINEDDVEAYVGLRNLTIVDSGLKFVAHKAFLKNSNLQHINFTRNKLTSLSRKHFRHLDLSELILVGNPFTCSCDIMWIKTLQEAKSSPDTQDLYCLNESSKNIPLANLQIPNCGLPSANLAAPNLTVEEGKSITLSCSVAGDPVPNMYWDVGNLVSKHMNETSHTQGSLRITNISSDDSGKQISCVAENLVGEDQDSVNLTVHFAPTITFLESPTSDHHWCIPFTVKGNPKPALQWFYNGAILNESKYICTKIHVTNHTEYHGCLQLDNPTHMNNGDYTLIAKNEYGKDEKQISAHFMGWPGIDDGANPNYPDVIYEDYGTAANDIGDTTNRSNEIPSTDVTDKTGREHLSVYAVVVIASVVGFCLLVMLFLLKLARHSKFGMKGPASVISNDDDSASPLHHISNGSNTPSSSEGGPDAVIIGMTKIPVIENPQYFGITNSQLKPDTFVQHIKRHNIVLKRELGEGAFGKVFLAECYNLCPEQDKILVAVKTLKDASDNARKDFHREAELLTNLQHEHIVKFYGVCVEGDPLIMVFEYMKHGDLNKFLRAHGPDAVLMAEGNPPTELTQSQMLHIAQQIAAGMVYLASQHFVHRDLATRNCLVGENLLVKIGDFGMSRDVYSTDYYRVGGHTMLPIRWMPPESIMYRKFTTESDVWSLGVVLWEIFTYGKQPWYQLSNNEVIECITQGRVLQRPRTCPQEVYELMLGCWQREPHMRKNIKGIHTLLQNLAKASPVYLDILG
T6 sequence (Q16288 whole entry, the tested form may be a part): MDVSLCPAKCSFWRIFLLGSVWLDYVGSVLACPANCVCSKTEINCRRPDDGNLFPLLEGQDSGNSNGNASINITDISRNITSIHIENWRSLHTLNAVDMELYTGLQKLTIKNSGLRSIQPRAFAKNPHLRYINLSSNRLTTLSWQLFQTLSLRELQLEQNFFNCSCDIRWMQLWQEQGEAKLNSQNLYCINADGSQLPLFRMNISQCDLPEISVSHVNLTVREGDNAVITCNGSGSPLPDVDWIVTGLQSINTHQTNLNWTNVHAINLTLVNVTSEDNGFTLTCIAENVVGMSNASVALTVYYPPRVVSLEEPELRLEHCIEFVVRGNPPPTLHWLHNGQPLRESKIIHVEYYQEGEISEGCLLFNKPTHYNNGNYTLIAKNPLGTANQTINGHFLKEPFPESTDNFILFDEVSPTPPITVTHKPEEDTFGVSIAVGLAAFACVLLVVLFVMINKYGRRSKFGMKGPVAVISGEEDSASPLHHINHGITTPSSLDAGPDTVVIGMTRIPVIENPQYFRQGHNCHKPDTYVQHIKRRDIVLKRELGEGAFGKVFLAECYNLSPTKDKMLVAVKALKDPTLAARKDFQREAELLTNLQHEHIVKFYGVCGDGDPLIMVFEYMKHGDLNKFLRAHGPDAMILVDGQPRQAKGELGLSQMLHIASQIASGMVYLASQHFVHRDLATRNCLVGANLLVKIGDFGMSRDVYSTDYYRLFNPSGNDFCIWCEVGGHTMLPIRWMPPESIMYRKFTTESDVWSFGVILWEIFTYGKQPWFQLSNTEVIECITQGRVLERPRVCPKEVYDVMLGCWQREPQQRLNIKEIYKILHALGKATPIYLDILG
T1 sequence (P04629 440-796 limits assumed): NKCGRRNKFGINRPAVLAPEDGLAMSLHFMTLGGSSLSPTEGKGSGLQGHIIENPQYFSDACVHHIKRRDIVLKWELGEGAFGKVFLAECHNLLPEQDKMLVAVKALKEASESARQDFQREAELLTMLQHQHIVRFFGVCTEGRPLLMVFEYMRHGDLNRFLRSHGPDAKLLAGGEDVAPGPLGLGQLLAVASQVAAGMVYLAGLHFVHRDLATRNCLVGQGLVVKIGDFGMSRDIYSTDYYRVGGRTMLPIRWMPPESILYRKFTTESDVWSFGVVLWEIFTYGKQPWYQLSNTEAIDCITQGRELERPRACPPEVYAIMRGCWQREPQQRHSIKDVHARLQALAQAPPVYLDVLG

IC50 (TRKA) [µM] | IC50 (TRKB) [µM] | IC50 (TRKC) [µM] | IC50 (BaF3-CD74-NTRK1) [µM] | IC50 (BaF3-ETV6-NTRK2) [µM] | IC50 (BaF3-ETV6-NTRK3) [µM] | SMILES
0.25 | > 1 | 0.16 | 7.94 | 8.82 | 3.25 | Fc1ccc(Cc2ccc3[nH]nc(/C=C/c4ccccn4)c3c2)cc1F [DYX-059, (E)-5-(3,4-difluorobenzyl)-3-(2-(pyridin-2-yl)vinyl)-1H-indazole]
0.818 | 0.375 | 0.62 | > 10 | > 10 | > 10 | Fc1ccc(Cc2ccc3[nH]nc(/C=C/c4ccccn4)c3c2)c(F)c1 [DYX-060, (E)-5-(2,4-difluorobenzyl)-3-(2-(pyridin-2-yl)vinyl)-1H-indazole]
0.217 | 0.385 | 0.113 | 7.73 | 2.89 | 2.74 | Fc1cccc(F)c1Cc1ccc2[nH]nc(C#Cc3ccccn3)c2c1 [DYX-071, 5-(2,6-difluorobenzyl)-3-(pyridin-2-ylethynyl)-1H-indazole]
0.072 | 0.435 | 0.041 | 2.5 | 2.83 | 2.2 | Fc1cccc(Cc2ccc3[nH]nc(C#Cc4ccccn4)c3c2)c1F [DYX-074, 5-(2,3-difluorobenzyl)-3-(pyridin-2-ylethynyl)-1H-indazole]
> 1 | > 1 | > 1 | 2.48 | > 10 | > 10 | Fc1cc(Cc2ccc3[nH]nc(C#Cc4ccccn4)c3c2)cc(F)c1F [DYX-075, 3-(pyridin-2-ylethynyl)-5-(3,4,5-trifluorobenzyl)-1H-indazole]
0.0398 | 0.17 | 0.0266 | 1.44 | 1.02 | 0.82 | Fc1cccc(F)c1Cc1ccc2[nH]nc(/C=C/c3ccccn3)c2c1 [DYX-081, (E)-5-(2,6-difluorobenzyl)-3-(2-(pyridin-2-yl)vinyl)-1H-indazole]
0.0152 | 0.0678 | 0.0085 | 0.584 | 0.248 | 0.159 | Fc1cccc(Cc2ccc3[nH]nc(/C=C/c4ccccn4)c3c2)c1F [DYX-082, (E)-5-(2,3-difluorobenzyl)-3-(2-(pyridin-2-yl)vinyl)-1H-indazole]
0.628 | > 1 | 0.191 | 7.5 | 3.02 | 3.31 | Fc1cc(Cc2ccc3[nH]nc(/C=C/c4ccccn4)c3c2)cc(F)c1F [DYX-083, (E)-3-(2-(pyridin-2-yl)vinyl)-5-(3,4,5-trifluorobenzyl)-1H-indazole]
0.0542 | 0.241 | 0.111 | 3.6 | 2.6 | 3.71 | Fc1cc(F)cc(Sc2ccc3[nH]nc(C#Cc4ccccn4)c3c2)c1 [DYX-086, 5-((3,5-difluorophenyl)thio)-3-(pyridin-2-ylethynyl)-1H-indazole]
0.0099 | 0.0799 | 0.0357 | 0.48 | 0.295 | 0.158 | Fc1cc(F)cc(Sc2ccc3[nH]nc(/C=C/c4ccccn4)c3c2)c1 [DYX-090, (E)-5-((3,5-difluorophenyl)thio)-3-(2-(pyridin-2-yl)vinyl)-1H-indazole]
0.0517 | 0.31 | 0.2 | 3.06 | 2.61 | 2.77 | Fc1cc(F)cc(Oc2ccc3[nH]nc(C#Cc4ccccn4)c3c2)c1 [DYX-092, 5-(3,5-difluorophenoxy)-3-(pyridin-2-ylethynyl)-1H-indazole]
0.0218 | 0.0366 | 0.0248 | 0.595 | 0.571 | 0.5 | Fc1cc(F)cc(Oc2ccc3[nH]nc(/C=C/c4ccccn4)c3c2)c1 [DYX-101, (E)-5-(3,5-difluorophenoxy)-3-(2-(pyridin-2-yl)vinyl)-1H-indazole]
0.0081 | 0.0431 | 0.0214 | 0.888 | 0.914 | 0.749 | O=S(=O)(c1cc(F)cc(F)c1)c1ccc2[nH]nc(C#Cc3ccccn3)c2c1 [DYX-108, 5-((3,5-difluorophenyl)sulfonyl)-3-(pyridin-2-ylethynyl)-1H-indazole]
0.0012 | 0.007 | 0.0028 | 0.411 | 0.175 | 0.155 | O=S(=O)(c1cc(F)cc(F)c1)c1ccc2[nH]nc(/C=C/c3ccccn3)c2c1 [DYX-114, (E)-5-((3,5-difluorophenyl)sulfonyl)-3-(2-(pyridin-2-yl)vinyl)-1H-indazole]
> 1 | > 1 | > 1 | > 10 | > 10 | > 10 | Fc1cc(F)cc(-c2ccc3[nH]nc(C#Cc4ccccn4)c3c2)c1 [DYX-115, 5-(3,5-difluorophenyl)-3-(pyridin-2-ylethynyl)-1H-indazole]
0.648 | > 1 | 0.226 | > 10 | > 10 | > 10 | Fc1cc(F)cc(-c2ccc3[nH]nc(/C=C/c4ccccn4)c3c2)c1 [DYX-119, (E)-5-(3,5-difluorophenyl)-3-(2-(pyridin-2-yl)vinyl)-1H-indazole]
> 1 | > 1 | 0.575 | 9.98 | 2.8 | 3.15 | Fc1cc(F)cc(Nc2ccc3[nH]nc(C#Cc4ccccn4)c3c2)c1 [DYX-129, N-(3,5-difluorophenyl)-3-(pyridin-2-ylethynyl)-1H-indazol-5-amine]
0.319 | 0.993 | 0.235 | 3.81 | 9.84 | 3.09 | CN(c1cc(F)cc(F)c1)c1ccc2[nH]nc(C#Cc3ccccn3)c2c1 [DYX-130, N-(3,5-difluorophenyl)-N-methyl-3-(pyridin-2-ylethynyl)-1H-indazol-5-amine]
0.0313 | 0.0713 | 0.02 | 2.9 | 1.61 | 2.21 | Fc1cc(F)cc(COc2ccc3[nH]nc(C#Cc4ccccn4)c3c2)c1 [DYX-131, 5-((3,5-difluorobenzyl)oxo)-3-(pyridin-2-ylethynyl)-1H-indazole]
0.0033 | 0.0098 | 0.003 | 0.156 | 0.178 | 0.0962 | Fc1cc(F)cc(COc2ccc3[nH]nc(/C=C/c4ccccn4)c3c2)c1 [DYX-132, (E)-5-((3,5-difluorobenzyl)oxo)-3-(2-(pyridin-2-yl)vinyl)-1H-indazole]
0.0919 | 0.124 | 0.0403 | > 10 | 4.62 | 2.65 | Clc1cccc(Cc2ccc3[nH]nc(C#Cc4ccccn4)c3c2)c1 [DYX-134Q, 5-(3-chlorobenzyl)-3-(pyridin-2-ylethynyl)-1H-indazole]
0.0709 | 0.211 | 0.0283 | 2.36 | 1.88 | 0.846 | Clc1cccc(Cc2ccc3[nH]nc(/C=C/c4ccccn4)c3c2)c1 [DYX-134X, (E)-5-(3-chlorobenzyl)-3-(2-(pyridin-2-yl)vinyl)-1H-indazole]
0.292 | 0.817 | 0.211 | > 10 | > 10 | > 10 | COc1cccc(Cc2ccc3[nH]nc(C#Cc4ccccn4)c3c2)c1 [DYX-135Q, 5-(3-methoxybenzyl)-3-(pyridin-2-ylethynyl)-1H-indazole]
0.0494 | 0.0705 | 0.0225 | 2.99 | 2.98 | 2.4 | COc1cccc(Cc2ccc3[nH]nc(/C=C/c4ccccn4)c3c2)c1 [DYX-135X, (E)-5-(3-methoxybenzyl)-3-(2-(pyridin-2-yl)vinyl)-1H-indazole]
0.0048 | 0.091 | 0.0058 | 0.603 | 1.07 | 0.733 | N#Cc1cccc(Cc2ccc3[nH]nc(/C=C/c4ccccn4)c3c2)c1 [DYX-136X, (E)-3-((3-(2-(pyridin-2-yl)vinyl)-1H-indazol-5-yl)methyl)benzonitrile]
